{"source": "patent US8563530B2", "about": "“Purine nucleoside phosphoramidate” (Gilead Pharmassel LLC, priority 2010, dated 2013)", "key": {"[1]": {"system": "HCV replicon RNA-containing Huh7 cells (clone A cells)", "assay": "HCV replicon assay", "format": "cell-based", "details": "for Replicon assay result in combination with compound 1: synergism: assayed in combination with compound 1", "procedure": "HCV replicon assay. HCV replicon RNA-containing Huh7 cells (clone A cells; Apath, LLC, St. Louis, Mo.) were kept at exponential growth in Dulbecco's modified Eagle's medium (high glucose) containing 10% fetal bovine serum, 4 mM L-glutamine and 1 mM sodium pyruvate, 1× nonessential amino acids, and G418 (1,000 μg/ml). Antiviral assays were performed in the same medium without G418. Cells were seeded in a 96-well plate at 1,500 cells per well, and test compounds were added immediately after seeding. Incubation time 4 days. At the end of the incubation step, total cellular RNA was isolated (RNeasy 96 kit; Qiagen). Replicon RNA and an internal control (TaqMan rRNA control reagents; Applied Biosystems) were amplified in a single-step multiplex RT-PCR protocol as recommended by the manufacturer.\nTo express the antiviral effectiveness of a compound, the threshold RT-PCR cycle of the test compound was subtracted from the average threshold RT-PCR cycle of the no-drug control (ΔCtHCV). A ΔCt of 3.3 equals a 1-log 10 reduction (equal to the 90% effective concentration [EC90]) in replicon RNA levels. The cytotoxicity of the test compound could also be expressed by calculating the ΔCtrRNA values. The ΔΔCt specificity parameter could then be introduced (ΔCtHCV−ΔCtrRNA), in which the levels of HCV RNA are normalized for the rRNA levels and calibrated against the no-drug control. Compound 1 was tested for its biological properties based on the preceding assay."}, "[2]": {"assay": "GVS analysis (hygroscopicity)", "format": "physicochemical"}}}
{"smiles": "COc1nc(N)nc2c1ncn2[C@@H]1O[C@H](CO[P@@](=O)(N[C@@H](C)C(=O)OC(C)C)Oc2ccccc2)[C@@H](O)[C@@]1(C)F", "note": "[Compound 1, SP-(2S)-isopropyl 2-(((((2R,3R,4R,5R)-5-(2-amino-6-methoxy-9H-purin-9-yl)-4-fluoro-3-hydroxy-4-methyltetrahydrofuran-2-yl)methoxy)(phenoxy)phosphoryl)amino)propanoate]", "values": [{"measurement": "EC90", "setting": "[1]; Hepatitis C virus, Huh-7, 96 h, clone A cells, incubation time 4 days, replicon RNA by RT-PCR, 1-log 10 reduction, read-out: CloneA EC90", "result": 0.02, "unit": "µM"}]}
{"smiles": "COc1nc(N)nc2c1ncn2[C@@H]1O[C@H](CO[P@@](=O)(N[C@@H](C)C(=O)OC(C)C)Oc2ccccc2)[C@@H](O)[C@@]1(C)F.O", "note": "[Compound 1.H2O, (S)-2-{(S)-[(1R,4R,5R)-5-(2-Amino-6-methoxy-purin-9-yl)-4-(R)-fluoro-3-hydroxy-4-methyl-tetrahydro-furan-2-ylmethoxy]-phenoxy-phosphorylamino}-propionic acid isopropyl ester monohydrate]", "values": [{"measurement": "GVS hygroscopicity", "setting": "[2]", "result": "very low hygroscopicity"}, {"measurement": "GVS reversible weight gain", "setting": "[2]; at 90% RH", "result": 0.47, "unit": "% w/w"}]}
{"smiles": "CC(C)OC(=O)[C@H](C)N[P@](=O)(OC[C@H]1O[C@@H](n2ccc(=O)[nH]c2=O)[C@](C)(F)[C@@H]1O)Oc1ccccc1", "note": "[compound E]", "values": [{"measurement": "Replicon assay result in combination with compound 1: synergism", "setting": "[1]", "result": "synergism"}]}
{"smiles": "CC(C)(C)OC(=O)N[C@H]1CCCCC/C=C\\[C@@H]2C[C@@]2(C(=O)NS(=O)(=O)C2CC2)NC(=O)[C@@H]2C[C@@H](OC(=O)N3Cc4cccc(F)c4C3)CN2C1=O", "note": "[ITMN-191]", "values": [{"measurement": "Replicon assay result in combination with compound 1: synergism", "setting": "[1]", "result": "synergism"}]}
